# Laboratory results as given in patent US9168247B2, “Beta carboline derivatives useful in the treatment of proliferative disorders” (FACULTES UNIVERSITAIRES NOTRE DAME DE LA PAIX, priority 2010, dated 2015).
# Like-named read-outs stand apart in the source and are kept apart here.
# Legend:
# U373 glioma cells = assay: MTT test, overall cell growth, U373; format: cell-based, human; conditions: 72 hours of incubation
# Method: (§1) MTT tests were performed in order to rapidly, i.e., within 5 days, measure the effect of the present compounds on the overall cell growth. The test measured the number of metabolically active living cells that were able to transform the yellow product 3-(4,5-dimethylthiazol-2-yl)-2,5-diphenyl tetrazolium bromide (herein referred as MTT) into the blue product formazan dye by mitochondrial reduction. The amount of formazan obtained at the end of the experiment, measured by means of a spectrophotometer, is directly proportional to the number of living cells. Optical density determination thus enabled a quantitative measurement of the effect of the investigated compounds as compared to the control condition (untreated cells) and/or to other reference compounds.
# (§2) Five human cancer cell lines set forth in Table 3 were used in the MTT tests. These cancer cell lines cover two histological cancer types including glioma (Hs683, T98G, U373), and oesophageal (OE21, OE33) cancers. The U373 cell line is apoptosis-resistant but autophagy-sensitive.
# (§3) To perform the assay, cells were allowed to grow in 96-well micro-wells with a flat bottom with an amount of 100 μl of cell suspension per well with 5,000 to 8,000 cells/well depending on the cell type used. Each cell line was seeded in its appropriate culture medium.
# (§4) The detailed experimental procedure was as follows: after a 24-hour period of incubation at 37° C., the culture medium was replaced by 100 μl of fresh medium in which the tested compound was previously dissolved, at the following molar concentrations: 1×10^−8 M, 5×10^−8 M, 1×10^−7 M, 5×10^−7 M, 1×10^−6 M, 5×10^−6 M, 1×10^−5 M, 5×10^−5 M and 1×10^−4 M. Each experiment was performed in sestuplicate (6 times).
# (§5) After 72 hours of incubation at 37° C. with (experimental conditions) or without (control condition) the compound to be tested, the medium was replaced by 100 μl MTT dissolved in RPMI (1640 without phenol red) at a concentration of 0.5 or 1 mg/ml. The micro-wells were subsequently incubated during 3 hours and a half at 37° C. and centrifuged at 1300 rpm during 10 minutes. MTT was removed and formazan crystals formed were dissolved in […]. The micro-wells were shaken for 5 minutes and read on a spectrophotometer at wavelengths of 570 nm (maximal formazan absorbance).
# (§6) For each experimental condition, the mean optical density was calculated, allowing the determination of the percentage of remaining living cells in comparison to the control.
# (§7) The origin of all the cell lines we used, along with their biological characteristics, and the validation procedures of the MTT colorimetric assay as employed here are fully detailed in Van Quaquebeke et al., 2005, J Med Chem 48:849-856; Ingrassia et al., 2009, J Med Chem 52:1100-1114; Mathieu et al., 2009, J Cell Mol Med, Feb. 20, 2009.
# T98G glioma cells = assay: MTT test, overall cell growth, T98G; format: cell-based, human; conditions: 72 hours of incubation
# Method: as §1, §2, §3, §4, §5, §6, §7
# Hs683 glioma cells = assay: MTT test, overall cell growth, Hs683; format: cell-based, human
# Method: as §1, §2, §3, §4, §5, §6, §7
# [1] = test system: OE21 oesophageal cancer cells; assay: MTT test, overall cell growth, OE21; format: cell-based, human
# Method: as §1, §2, §3, §4, §5, §6, §7
# [2] = test system: OE33 oesophageal cancer cells; assay: MTT test, overall cell growth, OE33; format: cell-based, human
# Method: as §1, §2, §3, §4, §5, §6, §7
# [3] = test system: human cancer cell lines (U373, T98G, Hs683, OE21, OE33); assay: MTT test, mean over the cancer cell lines; format: cell-based
# Method: as §1, §2, §3, §4, §5, §6, §7
# U373 cells = assay: Cellular imaging (videomicroscopy) of cultured U373 cells: antiproliferative class and global growth ratio; format: cell-based, human; parameters: key to Anti proliferative class / anti-proliferative class-GGR: class I: actually cytostatic for 3 days (<10% of cell death at the 3rd day); class II: cyctostatic but becomes cytotoxic with <10% cell death on the 2nd day, and >20% of cell death on the 3rd day; class III: cytostatic but rapidly becomes cytotoxic with <10% cell death on the 1st day, >20% of cell death on the 2nd day and >50% of cell death on the 3rd day; class IV: cytotoxic (>50% of cell death on the first day); conditions: for global growth ratio (GGR): GG treated cells/GG control cells, 72 h after drug addition, drug at its IC50 (MTT-test determined); for Anti proliferative class: cellular imaging of cultured U373 cells over three consecutive days
# Description: The effects of the di- and tri-substituted beta-carboline derivatives as described herein can also be determined on cell proliferation, migration and morphology by means of a cellular imaging approach (Debeir et al., Cytometry 60:29-40, 2004; Debeir et al., IEEE Trans Med Imaging 24:697-711, 2005) either in, e.g., the human U373-MG glioma cell line, which is apoptosis-resistant but autophagy-sensitive (Lefranc F et al., Neurosurgery 2008) or in, e.g., the human A549 non-small-cell-lung cancer cell line, which is apoptosis-resistant and autophagy-resistant (Mijatovic T et al., Neoplasia 2006, May; 8(5):402-12).
# […] The experiments are conducted in quadruplicates.
# The behaviour of the cells, in terms of morphology, growth and death are thus investigated. The effect on the overall growth is measured by counting the number of cells on the first (0 h) and the last image (72 h) of each film. The global growth ratio (GGR) is then deduced by dividing the number of cells on the last image by the number of cells on the first image. The ratio GGRtreated cells/GGRcontrol cells is further calculated thereby providing a value that describes the effect of compounds of the present invention on the overall cell growth.
# The methodology is fully described and validated in Debeir et al., 2008, Exp Cell Res 314:2985-2998 and Mathieu et al., 2009, J Cell Mol Med, Feb. 20, 2009.
# [4] = mean over the cancer cell lines, MTT test, read-out: IC50 Mean ± SEM
# [5] = Homo sapiens, Hs 683, 72 hours of incubation
# [6] = Homo sapiens, OE21, 72 hours of incubation
# [7] = Homo sapiens, OE33, 72 hours of incubation
# [8] = Homo sapiens, mean over the cancer cell lines, MTT test, read-out: IC50 Mean ± SEM
# [9] = Homo sapiens, Glioma cell, MTT assay, submicromolar range, e.g. as low as, read-out: mean anti-proliferative effect on the glioma cell lines
SMILES,melting point,IC50 (U373 glioma cells),IC50 (T98G glioma cells),IC50 (Hs683 glioma cells; 72 hours of incubation),IC50 ([1]; 72 hours of incubation),IC50 ([2]; 72 hours of incubation),"IC50 [3, 4]",global growth ratio (GGR) (U373 cells),Anti proliferative class (U373 cells),"IC50 (U373 glioma cells; Homo sapiens, U373 MG)","IC50 (T98G glioma cells; Homo sapiens, T98G)",IC50 (Hs683 glioma cells; [5]),"IC50 [1, 6]","IC50 [2, 7]","IC50 [3, 8]","IC50 [3, 9]"
"Cc1nccc2c3ccc(OCCC(C)C)cc3n(CCC(C)C)c12 [PL3, 1-methyl-7-(3-methylbutyloxy)-9-(3-methylbutyl)-β-carboline]",106.4 °C,,,,,,,,,,,,,,,
Cc1nccc2c1[nH]c1cc(OCc3ccncc3)ccc12 [JR222],,2.5 ± 0.2 µM,3.6 ± 0.2 µM,8.1 ± 0.2 µM,5 ± 0.4 µM,6.3 ± 0.1 µM,5 ± 1 µM,0.4,II,,,,,,,
Cc1nccc2c1[nH]c1cc(OCCO)ccc12 [JR226],,42 ± 2 µM,53 ± 3 µM,41 ± 3 µM,30 ± 4 µM,63 ± 4 µM,46 ± 6 µM,0.3,I (class I: actually cytostatic for 3 days (<10% of cell death at the 3rd day)),,,,,,,
"CCCn1c2cc(OCc3ccccc3)ccc2c2ccnc(C)c21 [CV33, 1-methyl-7-benzyloxy-9-propyl-β-carboline]",,,,,,,,0.3,III,26 ± 1 µM,34 ± 1 µM,13 ± 1 µM,23 ± 2 µM,9 ± 1 µM,21 ± 4 µM,
Cc1nccc2c1[nH]c1cc(OCc3cccc4ccccc34)ccc12 [JR147],,7.4 ± 0.4 µM,12 ± 2 µM,19 ± 2 µM,33 ± 8 µM,8.2 ± 0.4 µM,16 ± 5 µM,0.2,IV (class IV: cytotoxic (>50% of cell death on the first day)),,,,,,,
Cc1nccc2c1[nH]c1cc(OCC3CCCCC3)ccc12 [JR167],,7.48 ± 0.07 µM,7.2 ± 0.2 µM,22 ± 2 µM,8.3 ± 0.2 µM,8.1 ± 0.2 µM,11 ± 3 µM,0.1,IV (class IV: cytotoxic (>50% of cell death on the first day)),,,,,,,
"Cc1c2c(cc[n+]1Cc1ccc(F)cc1)c1ccc(OCC3CCCCC3)cc1n2CC1CCCCC1.[Br-] [CV30, 1-methyl-2-(4-fluorobenzyl)-7-cyclohexylmethyloxy-9-cyclohexylmethyl-β-carbolin-2-ium bromide]",,,,,,,,0.8,I (class I: actually cytostatic for 3 days (<10% of cell death at the 3rd day)),0.04 ± 0.01 µM,2 ± 0.6 µM,3.1 ± 0.3 µM,1.4 ± 0.2 µM,1 ± 0.1 µM,1.6 ± 0.4 µM,
Cc1nccc2c1[nH]c1cc(OC(=O)c3ccccc3)ccc12 [JR140],,27 ± 2 µM,42 ± 3 µM,53 ± 3 µM,30 ± 4 µM,31 ± 4 µM,37 ± 5 µM,0.2,III,,,,,,,
"Cc1c2c(cc[n+]1Cc1ccccc1F)c1ccc(OCC3CCCCC3)cc1n2CC1CCCCC1.[Br-] [CV26, 1-methyl-2-(2-fluorobenzyl)-7-cyclohexylmethyloxy-9-cyclohexylmethyl-β-carbolin-2-ium bromide]",,,,,,,,0.2,I (class I: actually cytostatic for 3 days (<10% of cell death at the 3rd day)),1.42 ± 0.08 µM,0.07 ± 0.008 µM,0.25 ± 0.02 µM,0.35 ± 0.01 µM,0.35 ± 0.02 µM,0.5 ± 0.2 µM,0.34 to 0.8 µM
"Cc1c2c(cc[n+]1Cc1ccccc1F)c1ccc(OCc3ccccc3)cc1n2Cc1ccccc1.[Br-] [CV18, 1-methyl-2-(2-fluorobenzyl)-7-benzyloxy-9-benzyl-β-carbolin-2-ium bromide]",,,,,,,,0.3,I (class I: actually cytostatic for 3 days (<10% of cell death at the 3rd day)),0.5 ± 0.2 µM,0.37 ± 0.01 µM,0.44 ± 0.04 µM,0.38 ± 0.02 µM,0.7 ± 0.08 µM,0.48 ± 0.06 µM,0.34 to 0.8 µM
